Where two headings read alike, the source gives them in different places.
Columns and labels:
Type in all cases: in vivo
Aphis gossypii = assay: Cotton aphid (Aphis gossypii), sprayed potted plants; conditions: 72 h, read-out: mortality in comparison with untreated controls
Nilaparvata lugens = assay: Rice brown plant hopper (Nilaparvata lugens), sprayed rice seedlings; conditions: 72 h, read-out: mortality in comparison with untreated controls
Protocol: (§1) Rice seedlings are cleaned and washed 24 hours before spraying. The active compounds is formulated in 50:50 acetone:water (vol:vol) and 0.1% vol/vol surfactant (EL 620) was added. Potted rice seedlings are sprayed with 5 ml test solution, air dried, placed in cages and inoculated with 10 adults. Treated rice plants are kept at about 28-29° C. and relative humidity of about 50-60%. Percent mortality is recorded after 72 hours.

Dichromothrips corbetti = assay: Orchid thrips (Dichromothrips corbetti), floral-immersion technique; conditions: 72 h, read-out: mortality in comparison with untreated controls
Protocol: Dichromothrips corbetti adults used for bioassay are obtained from a colony maintained continuously under laboratory conditions. For testing purposes, the test compound is diluted in a 1:1 mixture of acetone:water (vol:vol), plus 0.01% vol/vol Alkamuls® EL 620 surfactant.
Thrips potency of each compound is evaluated by using a floral-immersion technique. Plastic petri dishes are used as test arenas. All petals of individual, intact orchid flowers are dipped into treatment solution and allowed to dry. Treated flowers are placed into individual petri dishes along with about 20 adult thrips. The petri dishes are then covered with lids. All test arenas are held under continuous light and a temperature of about 28° C. for duration of the assay. After 3 days, the numbers of live thrips are counted on each flower, and along inner walls of each petri dish. The percent mortality is recorded 72 hours after treatment.

Myzus persicae = assay: Green peach aphid (Myzus persicae), systemic, artificial diet in 96-well plates; conditions: 72 h, read-out: mortality in comparison with untreated controls
Excerpt: General conditions: If not otherwise specified, most test solutions are to be prepared as follows: The active compound is to be dissolved at the desired concentration in a mixture of 1:1 (vol:vol) distilled water:acteon. Further, the test solutions are to be prepared at the day of use (and, if not otherwise specified, in general at concentrations wt/vol).
For evaluating control of green peach aphid (Myzus persicae) through systemic means, the test unit consists of 96-well-microtiter plates containing liquid artificial diet under an artificial membrane.
The compounds are formulated using a solution containing 75% v/v water and 25% v/v DMSO. Different concentrations of formulated compounds are pipetted into the aphid diet, using a custom built pipetter, at two replications.
After application, 5-8 adult aphids are placed on the artificial membrane inside the microtiter plate wells. The aphids are then allowed to suck on the treated aphid diet and incubated at about 23+1° C. and about 50+5% relative humidity for 3 days. Aphid mortality and fecundity is then visually assessed.

Megoura viciae = assay: Vetch aphid (Megoura viciae), contact or systemic, broad bean leaf disks; conditions: foliar, 120 h, read-out: mortality in comparison with untreated controls
Protocol: For evaluating control of vetch aphid (Megoura viciae) through contact or systemic means the test unit consisted of 24-well-microtiter plates containing broad bean leaf disks.
The compounds were formulated using a solution containing 75% v/v water and 25% v/v DMSO. Different concentrations of formulated compounds were sprayed onto the leaf disks at 2.5 μl, using a custom built micro atomizer, at two replications.
After application, the leaf disks were air-dried and 5-8 adult aphids were placed on the leaf disks inside the microtiter plate wells. The aphids were then allowed to suck on the treated leaf disks and were incubated at about 23±1° C. and about 50±5% relative humidity for 5 days. Aphid mortality and fecundity was then visually assessed.

Aphis craccivora = assay: Cowpea aphid (Aphis craccivora), sprayed potted cowpea plants; conditions: 72 h, read-out: mortality in comparison with untreated controls
Protocol: The active compound is dissolved at the desired concentration in a mixture of 1:1 (vol:vol) distilled water: acetone. Surfactant (Alkamuls® EL 620) is added at a rate of 0.1% (vol/vol). The test solution is prepared at the day of use.
Potted cowpea plants are colonized with approximately 50-100 aphids of various stages by manually transferring a leaf tissue cut from infested plant 24 hours before application. Plants are sprayed after the pest population has been recorded. Treated plants are maintained on light carts at about 28° C. Percent mortality is assessed after 72 hours.

Nephotettix virescens = assay: Rice green leafhopper (Nephotettix virescens), sprayed rice seedlings; conditions: read-out: mortality in comparison with untreated controls
Protocol: as §1, with “compounds are” for “compounds is”, “acetone:water (vol:vol),” for “acetone:water (vol:vol)”, “620) is” for “620) was”

Plutella xylostella = assay: Diamond back moth (Plutella xylostella), dipped cabbage leaves; conditions: 3rd instar larvae on dipped cabbage leaves, 72 hours after treatment, read-out: mortality in comparison with untreated controls
Protocol: The active compound is dissolved at the desired concentration in a mixture of 1:1 (vol:vol) distilled water: acetone. Surfactant (Kinetic HV) is added at a rate of 0.01% (vol/vol). The test solution is prepared at the day of use.
Leaves of cabbage were dipped in test solution and air-dried. Treated leaves were placed in petri dishes lined with moist filter paper and inoculated with ten 3rd instar larvae. Mortality was recorded 72 hours after treatment. Feeding damages were also recorded using a scale of 0-100%.

Anthonomus grandis = assay: Boll weevil (Anthonomus grandis), insect diet with eggs in 96-well plates; conditions: 120 h, read-out: mortality in comparison with untreated controls
Protocol: For evaluating control of boll weevil (Anthonomus grandis) the test unit consisted of 96-well-microtiter plates containing an insect diet and 5-10 A. grandis eggs.
The compounds were formulated using a solution containing 75% v/v water and 25% v/v DMSO. Different concentrations of formulated compounds were sprayed onto the insect diet at 5 μl, using a custom built micro atomizer, at two replications.
After application, microtiter plates were incubated at about 25±1° C. and about 75±5% relative humidity for 5 days. Egg and larval mortality was then visually assessed.

C=C(F)C(=O)/N=c1\ccccn1Cc1ccc(Cl)nc1 [Compound E1.3]
≥ 75%: mortality at 500 ppm (Aphis gossypii) | mortality at 500 ppm (Nilaparvata lugens) | mortality at 500 ppm (Dichromothrips corbetti) | mortality at 2500 ppm (Myzus persicae) | mortality at 2500 ppm (Megoura viciae) | mortality at 500 ppm (Aphis craccivora) | mortality at 500 ppm (Nephotettix virescens; 72 h)

C=C(F)C(=O)/N=c1\ccccn1Cc1cnn(C)c1 [Compound E1.16]
≥ 75%: mortality at 500 ppm (Plutella xylostella) | mortality at 2500 ppm (Myzus persicae; 2500 ppm, adult aphids on treated diet, 3 days) | mortality at 2500 ppm (Megoura viciae; 2500 ppm, adult aphids on sprayed leaf disks, 5 days) | mortality at 500 ppm (Nephotettix virescens; 500 ppm, adults on sprayed rice seedlings, after 72 hours)

CC(C)(C)C/C=C(\C#N)C(=O)/N=c1\ccccn1Cc1ccc(Cl)nc1 [Compound E1.28]
≥ 75%: mortality at 2500 ppm (Myzus persicae) | mortality at 2500 ppm (Megoura viciae) | mortality at 500 ppm (Aphis craccivora) | mortality at 2500 ppm (Anthonomus grandis)

Source: US20160235069A1, “N-ACRYLIMINO HETEROCYCLIC COMPOUNDS” (BASF SE, priority 2013, published 2016)
